Assay results: US12692238B2, “Substituted pyridazinone herbicides” (FMC CORPORATION, priority 2020, dated 2026)

Legend:
Format in all cases: in vivo
[1] = test system: barnyardgrass (Echinochloa crus-galli); assay: Test A preemergence, barnyardgrass; conditions: 10 days
Description: (§1) Seeds of plant species selected from barnyardgrass (Echinochloa crus-galli), blackgrass (Alopecurus myosuroides), corn (Zea mays), foxtail, giant (giant foxtail, Setaria faberi), foxtail, green (green foxtail, Setaria viridis), goosegrass (Eleusine indica), kochia (Bassia scoparia), oat, wild (wild oat, Avena fatua), palmer amaranth (pigweed, palmer, Amaranthus palmeri), redroot pigweed (Amaranthus retroflexus), ragweed (common ragweed, Ambrosia artemisiifolia), ryegrass, Italian (Italian ryegrass, Lolium multiflorum), and soybean (Glycine max) were planted into a blend of loam soil and sand and treated preemergence with a directed soil spray using test chemicals formulated in a non-phytotoxic solvent mixture which included a surfactant.
(§2) At the same time, plants selected from these crop and weed species and also wheat (Triticum aestivum), galium (catchweed bedstraw, Galium aparine) and horseweed (Erigeron canadensis) were planted in pots containing the same blend of loam soil and sand and treated with postemergence applications of test chemicals formulated in the same manner. Plants ranged in height from 2 to 10 cm and were in the one- to two-leaf stage for the postemergence treatment. Treated plants and untreated controls were maintained in a greenhouse for 10 days, after which time all treated plants were compared to untreated controls and visually evaluated for injury. Plant response ratings, summarized in Table A, are based on a 0 to 100 scale where 0 is no effect and 100 is complete control. A dash (-) response means no test result.

[2] = test system: foxtail, giant (giant foxtail, Setaria faberi); assay: Test A preemergence, foxtail, giant; conditions: 0 to 100 scale, 10 days
Description: as §1, §2

kochia (Bassia scoparia) [3] = assay: Test A preemergence, kochia; conditions: 0 to 100 scale, 10 days
Description: as §1, §2

[4] = test system: redroot pigweed (Amaranthus retroflexus); assay: Test A preemergence, redroot pigweed; conditions: 0 to 100 scale, 10 days
Description: as §1, §2

[5] = test system: ragweed (common ragweed, Ambrosia artemisiifolia); assay: Test A preemergence, ragweed; conditions: 0 to 100 scale, 10 days
Description: as §1, §2

[6] = test system: ryegrass, Italian (Italian ryegrass, Lolium multiflorum); assay: Test A preemergence, ryegrass, Italian; conditions: 0 to 100 scale, 10 days
Description: as §1, §2

[7] = test system: barnyardgrass (Echinochloa crus-galli); assay: Test A postemergence, barnyardgrass; conditions: Postemergence, 0 to 100 scale, 10 days
Description: as §1, §2

[8] = test system: blackgrass (Alopecurus myosuroides); assay: Test A postemergence, blackgrass; conditions: Postemergence, 0 to 100 scale, 10 days
Description: as §1, §2

corn (Zea mays) = assay: Test A postemergence, corn; conditions: Postemergence, 0 to 100 scale, 10 days
Description: as §1, §2

[9] = test system: foxtail, giant (giant foxtail, Setaria faberi); assay: Test A postemergence, foxtail, giant; conditions: Postemergence, 0 to 100 scale, 10 days
Description: as §1, §2

kochia (Bassia scoparia) [10] = assay: Test A postemergence, kochia; conditions: 10 days
Description: as §1, §2

[11] = test system: redroot pigweed (Amaranthus retroflexus); assay: Test A postemergence, redroot pigweed; conditions: 10 days
Description: as §1, §2

[12] = test system: ragweed (common ragweed, Ambrosia artemisiifolia); assay: Test A postemergence, ragweed; conditions: 10 days
Description: as §1, §2

[13] = test system: ryegrass, Italian (Italian ryegrass, Lolium multiflorum); assay: Test A postemergence, ryegrass, Italian; conditions: 10 days
Description: as §1, §2

[14] = test system: wheat (Triticum aestivum); assay: Test A postemergence, wheat; conditions: 10 days
Description: as §1, §2

[15] = test system: galium (catchweed bedstraw, Galium aparine); assay: Test A postemergence, galium; conditions: 10 days
Description: as §1, §2

[16] = test system: barnyardgrass (Echinochloa crus-galli); assay: Test B flooded paddy test, barnyardgrass; conditions: 250 g ai/ha, Flood; visually evaluated after 10 to 14 days
Protocol: (§3) Plant species in the flooded paddy test selected from barnyardgrass (Echinochloa crus-galli), ducksalad (Heteranthera limosa), rice (Oryza sativa), and sedge, umbrella (small-flower umbrella sedge, Cyperus difformis) were grown to the 2-leaf stage for testing. At time of treatment, test pots were flooded to 3 cm above the soil surface, treated by application of test compounds directly to the paddy water, and then maintained at that water depth for the duration of the test. Treated plants and controls were maintained in a greenhouse for 10 to 14 days, after which time all species were compared to controls and visually evaluated. Plant response ratings, summarized in Table B, are based on a scale of 0 to 100 where 0 is no effect and 100 is complete control. A dash (-) response means no test result.

[17] = test system: ducksalad (Heteranthera limosa); assay: Test B flooded paddy test, ducksalad; conditions: 250 g ai/ha, Flood; visually evaluated after 10 to 14 days
Protocol: as §3

rice (Oryza sativa) = assay: Test B flooded paddy test, rice; conditions: 250 g ai/ha, Flood; visually evaluated after 10 to 14 days
Protocol: as §3

[18] = test system: sedge, umbrella (small-flower umbrella sedge, Cyperus difformis); assay: Test B flooded paddy test, sedge, umbrella; conditions: 250 g ai/ha, Flood; visually evaluated after 10 to 14 days
Protocol: as §3

[19] = 125 g ai/ha, 0 to 100 scale (0 no effect, 100 complete control)
[20] = 31 g ai/ha, postemergence, 0 to 100 scale (0 no effect, 100 complete control)
[21] = Postemergence, 125 g ai/ha, 0 to 100 scale

| Structure (SMILES) | Plant response rating, Barnyardgrass ([1]; 31 g ai/ha, 0 to 100 scale) | Plant response rating, Barnyardgrass [1, 19] | Plant response rating, Foxtail, Giant ([2]; 31 g ai/ha) | Plant response rating, Foxtail, Giant ([2]; 125 g ai/ha) | Plant response rating, Kochia (kochia (Bassia scoparia) [3]; 31 g ai/ha) | Plant response rating, Kochia (kochia (Bassia scoparia) [3]; 125 g ai/ha) | Plant response rating, Pigweed, Redroot ([4]; 31 g ai/ha) | Plant response rating, Pigweed, Redroot ([4]; 125 g ai/ha) | Plant response rating, Ryegrass, Italian ([6]; 31 g ai/ha) | Plant response rating, Ryegrass, Italian ([6]; 125 g ai/ha) | Plant response rating, Barnyardgrass ([7]; 31 g ai/ha) | Plant response rating, Barnyardgrass ([7]; 125 g ai/ha) | Plant response rating, Blackgrass ([8]; 31 g ai/ha) | Plant response rating, Blackgrass ([8]; 125 g ai/ha) | Plant response rating, Corn (corn (Zea mays); 31 g ai/ha) | Plant response rating, Corn (corn (Zea mays); 125 g ai/ha) | Plant response rating, Foxtail, Giant ([9]; 31 g ai/ha) | Plant response rating, Foxtail, Giant ([9]; 125 g ai/ha) | Plant response rating, Kochia (kochia (Bassia scoparia) [10]; [20]) | Plant response rating, Kochia (kochia (Bassia scoparia) [10]; [21]) | other results |
| --- | --- | --- | --- | --- | --- | --- | --- | --- | --- | --- | --- | --- | --- | --- | --- | --- | --- | --- | --- | --- | --- |
| CC(=O)OCOc1c(C)nn(C)c(=O)c1-c1c2ccccc2c(Cl)c2ccccc12 [Compound 12] | 20 | 90 | 10 | 80 | 0 | 100 | 100 | 100 | 70 | 90 | 10 | 60 | 0 | 30 | 0 | 10 | 20 | 80 | 40 | 80 | Plant response rating, Ragweed ([5]; 31 g ai/ha): 60; Plant response rating, Ragweed ([5]; 125 g ai/ha): 80; Plant response rating, Pigweed, Redroot [11, 20]: 100; Plant response rating, Pigweed, Redroot [11, 21]: 100; Plant response rating, Ragweed [12, 20]: 90; Plant response rating, Ragweed [12, 21]: 100; Plant response rating, Ryegrass, Italian [13, 20]: 80; Plant response rating, Ryegrass, Italian [13, 21]: 100; Plant response rating, Wheat [14, 20]: 0; Plant response rating, Wheat [14, 21]: 10; Plant response rating, Galium [15, 20]: 100; Plant response rating, Galium [15, 21]: 100; Plant response rating, Barnyardgrass (0 to 100 scale where 0 is no effect and 100 is complete control) [16]: 0; Plant response rating, Ducksalad (0 to 100 scale where 0 is no effect and 100 is complete control) [17]: 70; Plant response rating, Rice (0 to 100 scale where 0 is no effect and 100 is complete control) (rice (Oryza sativa)): 0; Plant response rating, Sedge, Umbrella (0 to 100 scale where 0 is no effect and 100 is complete control) [18]: 85 |
| CC(=O)OCOc1c(C)nn(C)c(=O)c1-c1c2ccccc2cc2ccccc12 [Compound 13] | 0 | 30 | 0 | 20 | 0 | 0 | 100 | 100 | 30 | 70 | 10 | 40 | 0 | 40 | 0 | 0 | 10 | 60 | 10 | 50 | Plant response rating, Pigweed, Redroot [11, 20]: 100; Plant response rating, Pigweed, Redroot [11, 21]: 100; Plant response rating, Ragweed [12, 20]: 90; Plant response rating, Ragweed [12, 21]: 100; Plant response rating, Ryegrass, Italian [13, 20]: 70; Plant response rating, Ryegrass, Italian [13, 21]: 100; Plant response rating, Wheat [14, 20]: 0; Plant response rating, Wheat [14, 21]: 0; Plant response rating, Galium [15, 20]: 100; Plant response rating, Galium [15, 21]: 100; Plant response rating, Barnyardgrass (0 to 100 scale where 0 is no effect and 100 is complete control) [16]: 0; Plant response rating, Ducksalad (0 to 100 scale where 0 is no effect and 100 is complete control) [17]: 0; Plant response rating, Rice (0 to 100 scale where 0 is no effect and 100 is complete control) (rice (Oryza sativa)): 0; Plant response rating, Sedge, Umbrella (0 to 100 scale where 0 is no effect and 100 is complete control) [18]: 0 |
| CC(=O)OCOc1c(C)nn(C)c(=O)c1-c1c2ccccc2c(Br)c2ccccc12 [Compound 14] | 10 | 80 | 60 | 100 | 20 | 30 | 100 | 100 | 80 | 100 | 30 | 80 | 20 | 30 | 0 | 0 | 30 | 90 | 30 | 60 | Plant response rating, Ragweed ([5]; 31 g ai/ha): 90; Plant response rating, Ragweed ([5]; 125 g ai/ha): 100; Plant response rating, Pigweed, Redroot [11, 20]: 100; Plant response rating, Pigweed, Redroot [11, 21]: 100; Plant response rating, Ragweed [12, 20]: 90; Plant response rating, Ragweed [12, 21]: 100; Plant response rating, Ryegrass, Italian [13, 20]: 80; Plant response rating, Ryegrass, Italian [13, 21]: 100; Plant response rating, Wheat [14, 20]: 0; Plant response rating, Wheat [14, 21]: 40; Plant response rating, Galium [15, 20]: 100; Plant response rating, Galium [15, 21]: 100; Plant response rating, Barnyardgrass (0 to 100 scale where 0 is no effect and 100 is complete control) [16]: 20; Plant response rating, Ducksalad (0 to 100 scale where 0 is no effect and 100 is complete control) [17]: 80; Plant response rating, Rice (0 to 100 scale where 0 is no effect and 100 is complete control) (rice (Oryza sativa)): 0; Plant response rating, Sedge, Umbrella (0 to 100 scale where 0 is no effect and 100 is complete control) [18]: 90 |
